From patent US8153637B2, “Phenyl-alkyl piperazines having TNF-modulating activity, preparation method, and therapeutic use thereof” (Sanofi, priority 2008, dated 2012)

System: not given
Assay: not given
Details: not given

SMILES	melting point [°C]
CCCCCCc1cc(CCN2CCN(c3cccc(C(F)(F)F)c3)CC2)ccc1C.Cl	187
CCCCCc1cc(CCN2CCN(c3cccc(F)c3)CC2)ccc1C.Cl [compound 4, 1-(3-fluorophenyl)-4-[2-(4-methyl-3-pentylphenyl)ethyl]-piperazine hydrochloride]	215 to 217
CCCCCc1cc(CCN2CCN(c3ccc(Cl)cn3)CC2)ccc1C.Cl	199 to 201
CCCCCc1cc(CCN2CCN(c3ccccc3C)CC2)ccc1C.Cl	220 to 222
CCCCCc1cc(CCN2CCN(c3cccc(OC(F)(F)F)c3)CC2)ccc1C.Cl	197 to 200
CCCCCc1cc(CCN2CCN(c3ccc(OCC)cc3)CC2)ccc1C.Cl.Cl	228 to 230
CCCCCc1cc(CCN2CCN(c3cccc(F)c3)CC2)ccc1OC.Cl	174 to 177
CCCCCc1cc(CCN2CCN(c3ccc(Br)cn3)CC2)ccc1C.Cl.Cl	190 to 192
CCCCCc1cc(CCN2CCN(c3ccccn3)CC2)ccc1C.Cl.Cl	183 to 185
CCCCCc1cc(CCN2CCN(c3cccc(Br)n3)CC2)ccc1C.Cl	185 to 187
CCCCCCCc1cc(CCN2CCN(c3cccc(C(F)(F)F)c3)CC2)ccc1C.Cl	190 to 192
CCCCCc1cc(CCN2CCN(c3ccc(Cl)cc3)CC2)ccc1C.Cl	203
CCCCCCCc1cc(CCN2CCN(c3cccc(C(F)(F)F)c3)CC2)ccc1OC.Cl	214
CCCCCc1cc(CCN2CCN(c3cccc(C(F)(F)F)c3)CC2)ccc1OC.Cl	146 to 149
CCCc1cc(CCN2CCN(c3cccc(C(F)(F)F)c3)CC2)ccc1C.Cl	198 to 200
CCCCCc1cc(CCN2CCN(c3ccc(F)cc3)CC2)ccc1C.Cl.Cl	> 201
CCCCCc1cc(CCN2CCN(c3ccc(C(C)(C)C)cc3)CC2)ccc1C.Cl	193 to 195

The remaining lines, values ahead:

melting point [°C]	SMILES
161 to 163	CCCCCc1cc(CCN2CCN(c3cccc(C(F)(F)F)n3)CC2)ccc1C.Cl
226 to 228	CCCCCc1cc(CCN2CCN(c3cccc(C)c3)CC2)ccc1C.Cl.Cl
182 to 185	CCCCCc1cc(CCN2CCN(c3cccc(C(F)F)c3)CC2)ccc1C.Cl [compound 8, 1-(3-difluoromethylphenyl)-4-[2-(4-methyl-3-pentylphenyl)-ethyl]piperazine hydrochloride]
199 to 201	CCCCCc1cc(CCN2CCN(c3cccc(OC)c3)CC2)ccc1C.Cl
200 to 202	CCCCCc1cc(CCN2CCN(c3ccccc3)CC2)ccc1C.Cl
184 to 185	CCCc1cc(CCN2CCN(c3cccc(C(F)(F)F)c3)CC2)ccc1OC.Cl
125 to 128	CCCCCc1cc(CCN2CCN(c3cccc(C(F)F)c3)CC2)ccc1OC.Cl
> 212	CCCCCc1cc(CCN2CCN(c3ccc(C(F)(F)F)cn3)CC2)ccc1C.Cl.Cl
200 to 202	CCCCCc1cc(CCN2CCN(c3ccccc3Cl)CC2)ccc1C.Cl

System: TNF-α
Assay: Synthesis of TNF-α induced in Balb/c mice by LPS from Escherichia coli
Assay type: in vivo
Details: female Balb/c mice, oral administration; LPS i.v. 10 μg/mouse one hour later; plasma TNF-α 1.5 hours after LPS
Method: The test products are administered orally to groups of five 7- to 8-week-old female Balb/c mice (Charles River, France). One hour later, LPS is administered intravenously (10 μg/mouse). The blood of each animal is collected 1.5 hours after the LPS administration. The samples are centrifuged, and the plasma is recovered and frozen at −80° C. The TNF-α is measured using commercial kits (R & D, Abingdon, UK).

SMILES	IC50, inhibiting the synthesis of TNF-α [mg/kg]
CCCCCc1cc(CCN2CCN(c3cccc(C(F)(F)F)c3)CC2)ccc1C.O=C(O)CCC(=O)O [compound 38, 1-(3-trifluoromethylphenyl)-4-[2-(4-methyl-3-pentyl-phenyl)ethyl]piperazine succinate]	0.1

System: tactile allodynia after spare nerve injury
Assay: Model of neuropathic pain: anti-allodynic effect in the spare nerve injury (SNI), von Frey test
Assay type: in vivo
Details: male C57B6 mice, 7 days after surgery, 1 mg/kg i.v., from 1 h to 6 h after administration
Method: The compounds of the invention are also tested in a model of neuropathic pain: measurement of the anti-allodynic effect in the spare nerve injury (SNI).
In this in vivo model of mice suffering from chronic neuropathic pain, the effect on tactile allodynia, a painful sensation induced after a mechanical stimulus not normally painful, is triggered in the hind leg by surgical lesion of the great sciatic nerve. It is then determined by measuring the paw withdrawal threshold (PWT), i.e. the applied force (expressed in grams) at which the mouse withdraws its hind leg.
Tactile allodynia is determined on both hind legs, i.e. homolaterally and controlaterally to the lesion determined following surgery, with the automatic von Frey test, in which the plantar skin of the hind legs is exposed to a pressure stimulus of increasing intensity reaching 5 grams, using a discharge needle prod. […]
Trial groups using the compounds according to the invention and a control group of animals were used, each being composed of four male C57B6 mice. In each group, the baseline of the PWT values (BL) was determined before surgery. […]
7 days after surgery, just before the administration of the compound, i.e. at 0 h, and in all the groups, the PWT values were determined for the homolateral hind leg (injured) and the controlateral hind leg (non-injured). […]

SMILES	reduction of pain (anti-allodynic effect, paw withdrawal threshold PWT)
CCCCCc1cc(CCN2CCN(c3cccc(C(F)(F)F)c3)CC2)ccc1C.CCCCCc1cc(CCN2CCN(c3cccc(C(F)(F)F)c3)CC2)ccc1C.O=C(O)c1cc2ccccc2c(Cc2c(O)c(C(=O)O)cc3ccccc23)c1O [compound 1, 1-(3-trifluoromethylphenyl)-4-[2-(4-methyl-3-pentylphenyl)ethyl]piperazine hemipamoate]	statistically significant reduction of pain

System: Zymosan-induced knee joint inflammation / hyperalgesia
Assay: Model of joint inflammation: Zymosan-induced knee joint inflammation, secondary hyperalgesia (plantar test)
Assay type: in vivo
Details: male hamster, 1 ng/joint injected into the joint one hour before first Zymosan injection; 3 Zymosan injections; measured from 4 hours and during following 3 weeks
Method: The compounds of the invention are tested in a model of joint inflammation.
The compound (1 ng/joint as a suspension in 10 μL of a solution of 2% PVP (polyvinylpyrrolidone)/1% lutrol F68/0.9% NaCl) according to the invention is injected one hour before the first injection of Zymosan® (see below) into the joint of a hamster.
Induction of a knee joint inflammation: Under light anaesthesia using isofluran, a suspension of Zymosan® at a dose of 100 μg in 10 μL of saline solution is injected into the knee joint of a male hamster. Zymosan® is a yeast extract which produces a strong dose-dependent inflammation when subcutaneously injected. Under the experimental conditions described herein (injection into the knee joint), it induces a hyperalgesia lasting for a week. In order to extend this period, 3 consecutive injections of Zymosan® were applied. The lag time to paw withdrawal, following exposure of the plantar skin to a defined heat stimulus, is measured using apparatus (Plantar Test Ugo Basile Biological Research Apparatus, Comerio, Italy) comprising a mini-camera to ensure the correct positioning of the infrared ray below the hind leg of interest.
Measurement of Secondary Hyperalgesia:
The timer, which measures the length of time the infrared light is reflected by the hind leg, is started by the investigator and stops automatically as soon as the animal shakes or pulls away its leg. […]

SMILES	reduction of pain (lag time to leg withdrawal, secondary hyperalgesia)
CCCCCc1cc(CCN2CCN(c3cccc(C(F)(F)F)c3)CC2)ccc1C.CCCCCc1cc(CCN2CCN(c3cccc(C(F)(F)F)c3)CC2)ccc1C.O=C(O)c1cc2ccccc2c(Cc2c(O)c(C(=O)O)cc3ccccc23)c1O [compound 1, 1-(3-trifluoromethylphenyl)-4-[2-(4-methyl-3-pentylphenyl)ethyl]piperazine hemipamoate]	effective reduction of pain over a 3-week period

System: TNF-α
Assay: Synthesis of TNF-α induced in Sprague-Dawley rats by LPS from Escherichia coli
Assay type: in vivo
Details: male Sprague-Dawley rats, oral administration; LPS i.v. 0.1 mg/Kg two hours later; serum TNF-α 1.5 hours after LPS
Method: The test products are administered orally to groups of ten male Sprague-Dawley rats weighing about 200 grams. Two hours later, LPS is administered intravenously (0.1 mg/Kg). The blood of each animal is collected 1.5 hours after the LPS administration. The samples are centrifuged, and the serum is recovered and frozen at −80° C. The TNF-α is measured using commercial kits (RPN 2744 Amersham, UK).

IC50, inhibiting the synthesis of TNF-α [mg/kg]	SMILES
1	CCCCCc1cc(CCN2CCN(c3cccc(C(F)F)c3)CC2)ccc1C.Cl [compound 8, 1-(3-difluoromethylphenyl)-4-[2-(4-methyl-3-pentylphenyl)-ethyl]piperazine hydrochloride]
1	CCCCCc1cc(CCN2CCN(c3cccc(F)c3)CC2)ccc1C.Cl [compound 4, 1-(3-fluorophenyl)-4-[2-(4-methyl-3-pentylphenyl)ethyl]-piperazine hydrochloride]

SMILES	IC50, inhibiting the synthesis of TNF-α [mg/kg]
CCCCCc1cc(CCN2CCN(c3cccc(C(F)(F)F)c3)CC2)ccc1C.CCCCCc1cc(CCN2CCN(c3cccc(C(F)(F)F)c3)CC2)ccc1C.O=C(O)c1cc2ccccc2c(Cc2c(O)c(C(=O)O)cc3ccccc23)c1O [compound 1, 1-(3-trifluoromethylphenyl)-4-[2-(4-methyl-3-pentylphenyl)ethyl]piperazine hemipamoate]	0.3
